Tested on: yeast genes (level of expressed mRNA)
Test: DNA chip analysis of expressed mRNA of yeast genes after 2 h culture with a toxic chemical substance
Format: cell-based, Saccharomyces cerevisiae S288C
Conditions: for The level of expressed mRNA in the presence of chemical substance/ (ratio to absence of chemical substance): stress protein genes, DNA chip; for The level of expressed mRNA in the presence of chemical substance/ in its absence, gene YPR184W: yeast gene YPR184W
Method: Yeast (Saccharomyces cerevtisiae S288C (α SUC2mal mel gap2 CUP1)) were cultured at 25° C. on YPD medium (yeast extract 1%, polypepton 2%, glucose 2%). One of toxic chemical substances was added to the cell at logarithmic growth phase, and the cell was further cultured for two hours. Cell was cultured without any chemical substance in the same condition, and was used as control. Concentrations of the chemical substances were defined to inhibit the growth of the yeast but not lead to death.
After the completion of cultivation, the culture was centrifuged to collect the cells. To the cells, sodium acetate buffer (50 mM sodium acetate, 10 mM EDTA, 1% SDS) was added, and the mixture was shaken at 65° C. for five minutes, followed by returning to room temperature, and obtaining the supernatant, which procedure was repeated two times. To the supernatant, ½ amount of a solution of phenol/chloroform was added, and the mixture was centrifuged to give a supernatant, which was added with an equal amount of chloroform, and the mixture was centrifuged to give a supernatant. To the supernatant, an equal amount of isopropanol containing 0.3 M sodium acetate was added, and the mixture was allowed to stand at room temperature for 30 minutes, after which the mixture was centrifuged to give a sediment of the whole RNAs. Seventy % ethanol was added to the sediment, and the mixture was again centrifuged to give a sediment, which was then dried and dissolved in water. mRNA was isolated from the whole RNAs as followings. In view of the fact that a poly A chain is attached to the 3′ terminus of mRNA, a polynucleotide having a poly T structure which was immobilized on the surface of latex beads was used to trap the mRNA, and then the mRNA was washed and eluted with spine column (Oligotex-dT30<Super>mRNA Purification Kit, Takara). Reverse transcription of the mRNA was conducted with a reverse transcriptase (Super Script II Reverse Transcriptase; catalogue No. 18064-014, GibcoBRL) using fluorescence-labeled nucleotides to give cDNAs that were introduced with Cy3-dUTP or Cy5-dUTP during the reverse transcription.
The labeled cDNAs were dissolved in TE buffer (10 mM Tris-HCl/1 mM EDTA, pH8.0), and the solution was dropped on the DNA chip containing the whole genes of yeast (DNA Chip Research Inc. Japan) so that the cDNAs were hybridized on the DNA chip at 65° C. for over 12 hours. The fluoresces intensity of the DNA chip was read with a scanner, and the ratio relative to the fluorescence intensity resulting from the absence of chemical substance was estimated as the following, which is shown in Tables 1 to 9: [formula]
In the Tables, “Intensity” indicated in the rightmost column is a value of the level of expressed mRNA of each gene in control cells as divided by the average level of the expressions of the whole genes.

SMILES: S=C([S-])NCCNC(=S)[S-].[Zn+2] [(11), zinc N,N′-ethylenebis(dithiocarbamate)]
- The level of expressed mRNA in the presence of chemical substance/ (in its absence), gene YMR293C (yeast gene YMR293C, ratio of DNA chip fluorescence intensity to that without chemical substance): 0.4
- The level of expressed mRNA in the presence of chemical substance/The level of expressed mRNA in the absence of chemical substance (yeast gene YMR314W): 1.8
- The level of expressed mRNA in the presence of chemical substance/The level of expressed mRNA in the absence of chemical substance (yeast gene YNL006W): 1.1
- The level of expressed mRNA in the presence of chemical substance/The level of expressed mRNA in the absence of chemical substance (yeast gene YNL007C): 1.3
- The level of expressed mRNA in the presence of chemical substance/ (in its absence), gene YNL025C (yeast gene YNL025C, ratio of DNA chip fluorescence intensity to that without chemical substance): 1.1
- The level of expressed mRNA in the presence of chemical substance/ (ratio to absence of chemical substance) (yeast gene YNL064C): 0.9
- The level of expressed mRNA in the presence of chemical substance/ (ratio to absence), gene YNL073W (yeast gene YNL073W, mitochondria-located protein genes, 2 h culture with chemical): 1.1
- The level of expressed mRNA in the presence of chemical substance/The level of expressed mRNA in the absence of chemical substance (yeast gene YNL093W): 1.6
- The level of expressed mRNA in the presence of chemical substance/ (in its absence), gene YNL192W (yeast gene YNL192W, ratio of DNA chip fluorescence intensity to that without chemical substance): 1.1
- The level of expressed mRNA in the presence of chemical substance/The level of expressed mRNA in the absence of chemical substance (yeast gene YNL333W): 2.0
- The level of expressed mRNA in the presence of chemical substance/The level of expressed mRNA in the absence of chemical substance (yeast gene YNR010W): 1.4
- The level of expressed mRNA in the presence of chemical substance/The level of expressed mRNA in the absence of chemical substance (yeast gene YNR069C): 2.5
- The level of expressed mRNA in the presence of chemical substance/ (in its absence), gene YNR072W (yeast gene YNR072W, ratio of DNA chip fluorescence intensity to that without chemical substance): 1.4
- The level of expressed mRNA in the presence of chemical substance/ (ratio to absence of chemical substance) (yeast gene YNR076W): 1.4
- The level of expressed mRNA in the presence of chemical substance/The level of expressed mRNA in the absence of chemical substance (yeast gene YOL013C): 1.4
- The level of expressed mRNA in the presence of chemical substance/ (ratio to absence), gene YOL096C (yeast gene YOL096C, mitochondria-located protein genes, 2 h culture with chemical): 1.2
- The level of expressed mRNA in the presence of chemical substance/ (in its absence), gene YOL096C (yeast gene YOL096C, ratio of DNA chip fluorescence intensity to that without chemical substance): 1.2
- The level of expressed mRNA in the presence of chemical substance/ (in its absence), gene YOL108C (yeast gene YOL108C, ratio of DNA chip fluorescence intensity to that without chemical substance): 1.1
- The level of expressed mRNA in the presence of chemical substance/ (in its absence), gene YOL116W (yeast gene YOL116W, ratio of DNA chip fluorescence intensity to that without chemical substance): 1.0
- The level of expressed mRNA in the presence of chemical substance/ (ratio to absence of chemical substance) (yeast gene YOL161C): 1.5
- The level of expressed mRNA in the presence of chemical substance/The level of expressed mRNA in the absence of chemical substance (yeast gene YOL164W): 1.0
- The level of expressed mRNA in the presence of chemical substance/ (ratio to absence of chemical substance) (yeast gene YOR008C): 1.0
- The level of expressed mRNA in the presence of chemical substance/ (ratio to absence of chemical substance) (yeast gene YOR009W): 1.4
- The level of expressed mRNA in the presence of chemical substance/ (ratio to absence of chemical substance) (yeast gene YOR010C): 1.2
- The level of expressed mRNA in the presence of chemical substance/The level of expressed mRNA in the absence of chemical substance (yeast gene YOR036W): 1.3
- The level of expressed mRNA in the presence of chemical substance/ (in its absence), gene YOR103C (yeast gene YOR103C, ratio of DNA chip fluorescence intensity to that without chemical substance): 1.0
- The level of expressed mRNA in the presence of chemical substance/The level of expressed mRNA in the absence of chemical substance (yeast gene YOR117W): 1.2
- The level of expressed mRNA in the presence of chemical substance/The level of expressed mRNA in the absence of chemical substance (yeast gene YOR124C): 1.2
- The level of expressed mRNA in the presence of chemical substance/The level of expressed mRNA in the absence of chemical substance (yeast gene YOR132W): 1.3
- The level of expressed mRNA in the presence of chemical substance/The level of expressed mRNA in the absence of chemical substance (yeast gene YOR157C): 1.6
- The level of expressed mRNA in the presence of chemical substance/ (in its absence), gene YOR180C (yeast gene YOR180C, ratio of DNA chip fluorescence intensity to that without chemical substance): 0.6
- The level of expressed mRNA in the presence of chemical substance/The level of expressed mRNA in the absence of chemical substance (yeast gene YOR181W): 1.0
- The level of expressed mRNA in the presence of chemical substance/The level of expressed mRNA in the absence of chemical substance (yeast gene YOR185C): 1.2
- The level of expressed mRNA in the presence of chemical substance/The level of expressed mRNA in the absence of chemical substance (yeast gene YOR198C): 1.4
- The level of expressed mRNA in the presence of chemical substance/ (in its absence), gene YOR251C (yeast gene YOR251C, ratio of DNA chip fluorescence intensity to that without chemical substance): 1.0
- The level of expressed mRNA in the presence of chemical substance/The level of expressed mRNA in the absence of chemical substance (yeast gene YOR259C): 1.0
- The level of expressed mRNA in the presence of chemical substance/The level of expressed mRNA in the absence of chemical substance (yeast gene YOR261C): 2.1
- The level of expressed mRNA in the presence of chemical substance/The level of expressed mRNA in the absence of chemical substance (yeast gene YOR288C): 1.4
- The level of expressed mRNA in the presence of chemical substance/ (ratio to absence), gene YOR316C (yeast gene YOR316C, mitochondria-located protein genes, 2 h culture with chemical): 2.4
- The level of expressed mRNA in the presence of chemical substance/ (in its absence), gene YOR348C (yeast gene YOR348C, ratio of DNA chip fluorescence intensity to that without chemical substance): 1.1
- The level of expressed mRNA in the presence of chemical substance/The level of expressed mRNA in the absence of chemical substance (yeast gene YOR355W): 1.2
- The level of expressed mRNA in the presence of chemical substance/ (in its absence), gene YOR363C (yeast gene YOR363C, ratio of DNA chip fluorescence intensity to that without chemical substance): 1.2
- The level of expressed mRNA in the presence of chemical substance/The level of expressed mRNA in the absence of chemical substance (yeast gene YOR383C): 1.4
- The level of expressed mRNA in the presence of chemical substance/ (ratio to absence), gene YPL040C (yeast gene YPL040C, mitochondria-located protein genes, 2 h culture with chemical): 0.9
- The level of expressed mRNA in the presence of chemical substance/ (ratio to absence of chemical substance) (yeast gene YPL059W): 1.6
- The level of expressed mRNA in the presence of chemical substance/The level of expressed mRNA in the absence of chemical substance (yeast gene YPL089C): 0.9
- The level of expressed mRNA in the presence of chemical substance/ (ratio to absence), gene YPL134C (yeast gene YPL134C, mitochondria-located protein genes, 2 h culture with chemical): 1.7
- The level of expressed mRNA in the presence of chemical substance/ (ratio to absence of chemical substance) (yeast gene YPL140C): 0.8
- The level of expressed mRNA in the presence of chemical substance/ (in its absence), gene YPL148C (yeast gene YPL148C, ratio of DNA chip fluorescence intensity to that without chemical substance): 3.5
- The level of expressed mRNA in the presence of chemical substance/The level of expressed mRNA in the absence of chemical substance (yeast gene YPL149W): 1.2
- The level of expressed mRNA in the presence of chemical substance/The level of expressed mRNA in the absence of chemical substance (yeast gene YPL154C): 1.8
- The level of expressed mRNA in the presence of chemical substance/ (ratio to absence of chemical substance) (yeast gene YPL194W): 0.9
- The level of expressed mRNA in the presence of chemical substance/ (ratio to absence of chemical substance) (yeast gene YPR005C): 0.4
- The level of expressed mRNA in the presence of chemical substance/The level of expressed mRNA in the absence of chemical substance (yeast gene YPR103W): 0.9
- The level of expressed mRNA in the presence of chemical substance/The level of expressed mRNA in the absence of chemical substance (yeast gene YPR108W): 1.8
- The level of expressed mRNA in the presence of chemical substance/ (in its absence), gene YPR165W (yeast gene YPR165W, ratio of DNA chip fluorescence intensity to that without chemical substance): 1.0
- The level of expressed mRNA in the presence of chemical substance/ in its absence, gene YPR184W (energy system protein genes, 2 h culture with the chemical, ratio to control without chemical): 3.6
- The level of expressed mRNA in the presence of chemical substance/ in its absence, gene YPR184W (ratio of DNA chip fluorescence intensity to that without chemical substance): 3.6
